In PubChem BioAssay (NCI):
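These data come from cells grown in 96-well plates and exposed to compound for 48 hours at five concentrations. GI50 marks 50% less growth. TGI marks complete inhibition of growth.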

Columns and labels:
Experiment in all cases: NCI-60 cell line screen, 48 h
[1] = tested on: CCRF-CEM leukemia
[2] = tested on: RXF 393 renal
[3] = tested on: SNB-19 CNS
[4] = tested on: PC-3 prostate
[5] = tested on: MDA-MB-231 breast
[6] = tested on: SF-268 CNS
[7] = tested on: MOLT-4 leukemia
[8] = tested on: UACC-62 melanoma
[9] = tested on: K-562 leukemia
[10] = tested on: NCI-H522 lung

SMILES | TGI [1] | TGI [2] | TGI [3] | TGI [4] | TGI [5] | TGI [6] | TGI [7] | TGI [8] | TGI [9] | TGI [10] | GI50 [2] | GI50 [3] | GI50 [4] | GI50 [5] | GI50 [6] | GI50 [9] | GI50 [10] | GI50 [7] | GI50 [8]
Cn1c2ccccc2c2[nH]c3ccccc3c(=O)c21 | > 100 µM | > 100 µM | > 100 µM | > 100 µM | > 100 µM | > 100 µM | > 100 µM | > 100 µM | > 100 µM |  |  |  |  |  |  |  |  |  | 
O=c1[nH]cnc2c1ncn2CCCCO | > 100 µM | > 100 µM | > 100 µM |  |  | > 100 µM | > 100 µM | > 100 µM | > 100 µM |  |  |  |  |  |  |  |  |  | 
Cc1cc(C)nc(NS(=O)(=O)c2ccc(NC(=O)c3cccc4c(N)c5ccccc5nc34)cc2)n1 | > 100 µM | > 100 µM | > 100 µM |  |  | > 100 µM | > 100 µM | > 100 µM | > 100 µM | > 100 µM |  |  |  |  |  |  |  |  | 
COC(=O)c1nc(N)nc(C(=O)OC)c1C(=O)c1ccccc1 | > 100 µM | > 100 µM | > 100 µM |  |  | > 100 µM | > 100 µM | > 100 µM | > 100 µM | > 100 µM |  |  |  |  |  |  |  |  | 
CC(=O)O[C@H]1CC[C@@]2(C)C(=C/C(=N\[N+](=O)[O-])[C@H]3C4CCC([C@H](C)CCCC(C)C)[C@@]4(C)CCC32)C1 (stereo not given in full) |  | > 100 µM | > 100 µM |  |  | > 100 µM | > 100 µM | > 100 µM | > 100 µM | > 100 µM |  |  |  |  |  |  |  |  | 
CC(C)c1cccc(C(C)C)c1NC(=O)C(=O)C1SC(=S)NC1=O (stereo not given) | > 100 µM | > 100 µM | > 100 µM |  |  | > 100 µM | > 100 µM | > 100 µM | > 100 µM | > 100 µM |  |  |  |  |  |  |  |  | 
COc1ccc(C=C2C(=O)NC(=O)NC2=O)cc1OCc1ccccc1 |  |  |  |  |  |  |  |  |  |  | 12 µg/mL | 23.3 µg/mL | 46.7 µg/mL | 31.4 µg/mL | 29.2 µg/mL | 30.8 µg/mL |  |  | 
O=S(=O)(N/N=C/c1ccc(Cl)cc1Cl)c1ccccc1 | > 100 µM | > 100 µM |  |  |  | > 100 µM | > 100 µM | > 100 µM | > 100 µM |  |  |  |  |  |  |  |  |  | 
[O-][n+]1c2cc(CN3CCOCC3)c(CN3CCOCC3)cc2[n+]([O-])c2c(O)cccc21 | 4.02 µM | 5.11 µM | > 40.8 µM |  |  | 3.6 µM | 3.05 µM | 12.9 µM |  | 6.23 µM |  |  |  |  |  |  |  |  | 
COc1ccc(CN=C(N)N=C(N)N)cc1OC |  | > 1000 µM | > 1000 µM |  | > 1000 µM | > 1000 µM | > 1000 µM | > 1000 µM | > 1000 µM | > 1000 µM | > 1000 µM | 482 µM |  | > 1000 µM | 472 µM | 362 µM | 714 µM | > 1000 µM | 558 µM
COc1cc(/C=C\c2ccc(Cl)cc2)cc(OC)c1OC | 3.96 µM | > 100 µM | > 100 µM |  |  | > 100 µM | 6.87 µM | > 100 µM | > 44.2 µM | 0.355 µM |  |  |  |  |  |  |  |  | 
C=C(C)C(=O)O[C@H]1CC2=CC(CC(C)=C[C@H]3OC(=O)C(=C)C13)OC2=O (stereo not given in full) | 17.9 µM |  | > 100 µM | 53.5 µM | 60.8 µM | 68.5 µM | 40.7 µM | 38.8 µM | 22.5 µM | 17 µM |  |  |  |  |  |  |  |  | 
COc1ccc(OC)c(/C=N/N=C2\C(=O)Nc3c(Cl)cc(Cl)cc32)c1 | > 100 µM | > 100 µM | > 100 µM | > 100 µM | > 100 µM |  | > 100 µM | > 100 µM | > 100 µM |  |  |  |  |  |  |  |  |  | 
CCOC(=O)C1Oc2ccc([N+](=O)[O-])cc2C1(C)O (stereo not given) | > 100 µM | > 100 µM | > 100 µM |  |  | > 100 µM | > 100 µM | > 100 µM | > 100 µM | > 100 µM |  |  |  |  |  |  |  |  | 
CCOC(=O)/C=C1\Oc2ccccc2C1(C)O (stereo not given) | > 100 µM | > 100 µM | > 100 µM |  |  | > 100 µM | > 100 µM | > 100 µM | > 100 µM | > 100 µM |  |  |  |  |  |  |  |  | 
Cc1cccc(N=C2NC(=O)C(CC(=O)Nc3ccccc3Cl)S2)c1 (stereo not given) | > 100 µM | > 100 µM | > 100 µM |  |  | > 100 µM | > 100 µM | > 100 µM | > 100 µM |  |  |  |  |  |  |  |  |  | 
Nc1ccc(C2=Nc3ccccc3SC(c3ccccc3O)C2)cc1 (stereo not given) | 32.5 µM | > 100 µM | > 100 µM |  |  | > 100 µM | 58.5 µM | > 100 µM | 51.6 µM | 64.9 µM |  |  |  |  |  |  |  |  | 
COC1OC(C(C)O)C2OC(C)(C)OC12 (stereo not given) | > 100 µM |  | > 100 µM | > 100 µM | > 100 µM | > 100 µM | > 100 µM | > 100 µM | > 100 µM | > 100 µM |  |  |  |  |  |  |  |  | 
COc1ccc(/C=N\O[Si](C)(C)C(C)(C)C)cc1O[Si](C)(C)C(C)(C)C | 48 µM | 28.4 µM | 33.3 µM |  |  | 39.4 µM | 36.5 µM | 40.2 µM | 37.2 µM |  |  |  |  |  |  |  |  |  | 
CCCC(CCC)C(=O)OCC1(CO)C/C(=C\c2ccc(C(F)(F)F)cc2)C(=O)O1 (stereo not given) |  | 37.8 µM | 30.6 µM | 25.4 µM | 22.9 µM | 33.3 µM | 31.9 µM | 27.1 µM | 20.6 µM | 31.4 µM | 16.6 µM | 16.8 µM | 12.3 µM | 7.66 µM | 16.2 µM | 0.823 µM | 15.1 µM | 14.3 µM | 11 µM
NNC(=S)N/N=C(/C(=O)Nc1ccc([N+](=O)[O-])cc1)c1nc2ccc([N+](=O)[O-])cc2[nH]c1=O | > 100 µM |  |  |  |  | > 100 µM | > 100 µM | > 100 µM | > 100 µM | > 100 µM |  |  |  |  |  |  |  |  | 
COC(=O)C1C(/C=C/c2ccoc2)ON2CCC[C@@H]12 (stereo not given in full) |  | > 100 µM | > 100 µM |  |  | > 100 µM |  |  |  | > 100 µM |  |  |  |  |  |  |  |  | 
Cc1cc(Cl)ccc1NC(=O)C(=O)Cc1occc(=O)c1O | > 100 µM | > 100 µM | > 100 µM |  |  | > 100 µM | > 100 µM | > 100 µM | > 100 µM | > 100 µM |  |  |  |  |  |  |  |  | 
O=c1[nH]c2c(c3ccccc13)CCc1ccccc1-2 |  | > 100 µM | > 100 µM |  |  | > 100 µM | > 100 µM |  | > 100 µM | > 100 µM |  |  |  |  |  |  |  |  | 
COC1C(O)C(C)OC(O[C@@H]2C[C@H]3CC[C@@H]4[C@H](CC[C@]5(C)[C@@H](C6=CC(=O)OC6)CC[C@]45O)[C@@]3(C)[C@H](O)C2)C1O (stereo not given in full) | > 100 µM | 0.0363 µM | 1.26 µM |  | > 100 µM | 0.171 µM | < 0.0273 µM | 0.647 µM | 0.457 µM | 0.132 µM |  |  |  |  |  |  |  |  | 
